Measured values from publication PMC10425210 (The Journal of Clinical Investigation, 2023).
Several values for one entry are separate records, joined by “and”; a condition that tells them apart may be missing. Equal values may be shown once. Entries after “also recorded” stand apart in the source; their conditions may differ. Read-outs that look alike come from different tables or passages of the source.

System: SHIV-SF162P3
Assay type: in vivo, rhesus macaques

With `CC(C)(C#Cc1ccc(-c2ccc(Cl)c3c(NS(C)(=O)=O)nn(CC(F)(F)F)c23)c([C@H](Cc2cc(F)cc(F)c2)NC(=O)Cn2nc(C(F)(F)F)c3c2C(F)(F)[C@@H]2C[C@H]32)n1)S(C)(=O)=O` [LEN, Lenacapavir] the “Intact SHIV DNA / 10M PBMC” value (animal V430, 50 mg/kg, Wk 2 post challenge) was 1 / 10M PBMC, the “Intact SHIV DNA / 10M PBMC” value (animal V430, 50 mg/kg, Wk 10 post challenge) was 1 / 10M PBMC and the “Plasma SHIV RNA” value (animal V430, 50 mg/kg, week 0 post challenge) was 62 copies per mL. The “Plasma SHIV RNA” value (animal V430, 50 mg/kg, week 1 post challenge) was 62 copies per mL, the “Plasma SHIV RNA” value (animal V430, 50 mg/kg, week 2 post challenge) was 62 copies per mL and the “Plasma SHIV RNA” value (animal V430, 50 mg/kg, week 3 post challenge) was 62 copies per mL. For the same compound, the “Plasma SHIV RNA” value (animal V430, 50 mg/kg, week 4 post challenge) was 62 copies per mL, the “Plasma SHIV RNA” value (animal V430, 50 mg/kg, week 5 post challenge) was 62 copies per mL and the “Plasma SHIV RNA” value (animal V430, 50 mg/kg, week 6 post challenge) was 62 copies per mL. For the same compound, the “Plasma SHIV RNA” value (animal V430, 50 mg/kg, week 7 post challenge) was 62 copies per mL, the “Plasma SHIV RNA” value (animal V430, 50 mg/kg, week 8 post challenge) was 62 copies per mL and the “Plasma SHIV RNA” value (animal V430, 50 mg/kg, week 9 post challenge) was 62 copies per mL. The “Plasma SHIV RNA” value (animal V430, 50 mg/kg, week 10 post challenge) was 62 copies per mL, the “Plasma SHIV RNA” value (animal V430, 50 mg/kg, week 11 post challenge) was 62 copies per mL and the “Plasma SHIV RNA” value (animal V430, 50 mg/kg, week 12 post challenge) was 62 copies per mL. The “Plasma SHIV RNA” value (animal V430, 50 mg/kg, week 13 post challenge) was 62 copies per mL, the “Plasma SHIV RNA” value (animal V430, 50 mg/kg, week 14 post challenge) was 62 copies per mL and the “Plasma SHIV RNA” value (animal V430, 50 mg/kg, week 15 post challenge) was 62 copies per mL. For the same compound, the “Plasma SHIV RNA” value (animal V430, 50 mg/kg, week 16 post challenge) was 62 copies per mL, the “Plasma SHIV RNA” value (animal V430, 50 mg/kg, week 17 post challenge) was 62 copies per mL and the “Plasma SHIV RNA” value (animal V430, 50 mg/kg, week 18 post challenge) was 62 copies per mL. For the same compound, the Challenge outcome (animal V435, 75 mg/kg) was “Infected”, the “Intact SHIV DNA / 10M PBMC” value (animal V435, 75 mg/kg, Wk 2 post challenge) was 1890.13 / 10M PBMC and the “Plasma SHIV RNA” value (animal V435, 75 mg/kg, week 0 post challenge) was 62 copies per mL. The “Plasma SHIV RNA” value (animal V435, 75 mg/kg, week 1 post challenge) was 62 copies per mL, the “Plasma SHIV RNA” value (animal V435, 75 mg/kg, week 2 post challenge) was 756278 copies per mL and the “Plasma SHIV RNA” value (animal V435, 75 mg/kg, week 6 post challenge) was 242042 copies per mL. For the same compound, the “Plasma SHIV RNA” value (animal V435, 75 mg/kg, week 7 post challenge) was 286179 copies per mL, the “Plasma SHIV RNA” value (animal V435, 75 mg/kg, week 9 post challenge) was 32896 copies per mL and the “Plasma SHIV RNA” value (animal V435, 75 mg/kg, week 10 post challenge) was 40477 copies per mL. For the same compound, the “Plasma SHIV RNA” value (animal V435, 75 mg/kg, week 11 post challenge) was 31394 copies per mL, the “Plasma SHIV RNA” value (animal V435, 75 mg/kg, week 12 post challenge) was 7502 copies per mL and the “Plasma SHIV RNA” value (animal V435, 75 mg/kg, week 13 post challenge) was 16622 copies per mL. For the same compound, the “Plasma SHIV RNA” value (animal V435, 75 mg/kg, week 14 post challenge) was 6647 copies per mL, the “Plasma SHIV RNA” value (animal V435, 75 mg/kg, week 15 post challenge) was 46117 copies per mL and the “Plasma SHIV RNA” value (animal V435, 75 mg/kg, week 16 post challenge) was 21357 copies per mL. For the same compound, the “Plasma SHIV RNA” value (animal V435, 75 mg/kg, week 17 post challenge) was 55828 copies per mL, the “Plasma SHIV RNA” value (animal V435, 75 mg/kg, week 18 post challenge) was 34073 copies per mL and the “Plasma SHIV RNA” value (animal V435, 75 mg/kg, week 19 post challenge) was 913 copies per mL. The “Plasma SHIV RNA” value (animal V435, 75 mg/kg, week 20 post challenge) was 62 copies per mL, the Challenge outcome (animal V470, 50 mg/kg) was “Not infected” and the “Intact SHIV DNA / 10M PBMC” value (animal V470, 50 mg/kg, Wk 2 post challenge) was 1 / 10M PBMC. For the same compound, the “Intact SHIV DNA / 10M PBMC” value (animal V470, 50 mg/kg, Wk 10 post challenge) was 1 / 10M PBMC, the “Plasma SHIV RNA” value (animal V470, 50 mg/kg, week 0 post challenge) was 62 copies per mL and the “Plasma SHIV RNA” value (animal V470, 50 mg/kg, week 1 post challenge) was 62 copies per mL. The “Plasma SHIV RNA” value (animal V470, 50 mg/kg, week 2 post challenge) was 62 copies per mL, the “Plasma SHIV RNA” value (animal V470, 50 mg/kg, week 3 post challenge) was 62 copies per mL and the “Plasma SHIV RNA” value (animal V470, 50 mg/kg, week 4 post challenge) was 62 copies per mL. For the same compound, the “Plasma SHIV RNA” value (animal V470, 50 mg/kg, week 5 post challenge) was 62 copies per mL, the “Plasma SHIV RNA” value (animal V470, 50 mg/kg, week 6 post challenge) was 62 copies per mL and the “Plasma SHIV RNA” value (animal V470, 50 mg/kg, week 7 post challenge) was 62 copies per mL. The “Plasma SHIV RNA” value (animal V470, 50 mg/kg, week 8 post challenge) was 62 copies per mL, the “Plasma SHIV RNA” value (animal V470, 50 mg/kg, week 9 post challenge) was 62 copies per mL and the “Plasma SHIV RNA” value (animal V470, 50 mg/kg, week 10 post challenge) was 62 copies per mL. The “Plasma SHIV RNA” value (animal V470, 50 mg/kg, week 11 post challenge) was 62 copies per mL, the “Plasma SHIV RNA” value (animal V470, 50 mg/kg, week 12 post challenge) was 62 copies per mL and the “Plasma SHIV RNA” value (animal V470, 50 mg/kg, week 13 post challenge) was 62 copies per mL. For the same compound, the “Plasma SHIV RNA” value (animal V470, 50 mg/kg, week 14 post challenge) was 62 copies per mL, the “Plasma SHIV RNA” value (animal V470, 50 mg/kg, week 15 post challenge) was 62 copies per mL and the “Plasma SHIV RNA” value (animal V470, 50 mg/kg, week 16 post challenge) was 62 copies per mL. For the same compound, the “Plasma SHIV RNA” value (animal V470, 50 mg/kg, week 17 post challenge) was 62 copies per mL, the “Plasma SHIV RNA” value (animal V470, 50 mg/kg, week 18 post challenge) was 62 copies per mL and the “reduction of the rate of infection per exposure” value (compared with the untreated group) was “more than 2 fold”. For the same compound, the “intact proviral DNA assay (IPDA) signal” value (eight SHIV-negative animals, weeks 2 and 10) was “No signal was detected”, the “Peak Plasma SHIV RNA” value (individual LEN-dosed infected animals) was 299412 copies/mL and 1140343 copies/mL and 35193943 copies/mL and the “animals viremic after challenge” value (of 11 LEN-dosed animals, 100 TCID50, 2 weeks after challenge) was 3 animals. For the same compound, the “anti-capsid (p27) antibody ELISA” value (other 8 animals, through week 10 after challenge) was “no antibodies were detectable”, the “LEN-dosed animals with confirmed uninfected status” value (plasma PCR, serology, IPDA) was 8 of 11 and the Challenge outcome (rhesus monkey, in vivo) was “Not infected”. The “Intact SHIV DNA / 10M PBMC” value (rhesus monkey, in vivo) was 1 / 10M PBMC, the “Plasma SHIV RNA” value (rhesus monkey, in vivo) was 62 copies per mL and the “resistance emergence, capsid sequence of plasma virus” value (rhesus monkey, in vivo) was “no emerging mutations in capsid; also recorded: No resistance was selected”. The “peak viremia, LEN-dosed infected vs untreated animals” value (same viral inoculum) was “no significant differences”.
